Results taken from ChEMBL document CHEMBL3045951, “Toxicities and sublethal effects of seven neonicotinoid insecticides on survival, growth and reproduction of imidacloprid-resistant cotton aphid, Aphis gossypii” (2011).
≈ marks a conversion by molar mass, not a printed value.

Experiments:
Format in all cases: functional
[1] = system: Aphis gossypii
Description: Insecticidal activity against imidacloprid-resistant Aphis gossypii (cotton aphid) in cotton leaves assessed as inhibition of honeydew excretion at LC20 concentration measured after 72 hr by dipping method

[2] = system: Aphis gossypii; assay: Insecticidal activity against imidacloprid-resistant Aphis gossypii (cotton aphid) in cotton leaves assessed as longevity at LC20 concentration
[3] = system: Aphis gossypii; assay: Resistance ratio, LC50 for Aphis gossypii RF45 (cotton aphid) to LC50 for Aphis gossypii SS
[4] = system: Aphis gossypii; assay: Insecticidal activity against imidacloprid-resistant Aphis gossypii (cotton aphid) in cotton leaves assessed as mortality measured after 72 hr by dipping method
[5] = system: Aphis gossypii; assay: Insecticidal activity against imidacloprid-resistant Aphis gossypii RF45 (cotton aphid) in cotton leaves assessed as mortality measured after 48 hr by dipping method
[6] = system: Aphis gossypii; assay: Insecticidal activity against Aphis gossypii SS (cotton aphid) in cotton leaves assessed as mortality measured after 48 hr by dipping method
[7] = system: Aphis gossypii; assay: Insecticidal activity against cotton aphid Aphis gossypii F6 (cotton aphid) in cotton leaves assessed as mortality measured after 48 hr by dipping method
[8] = system: Aphis gossypii; assay: Insecticidal activity against cotton aphid Aphis gossypii F9 (cotton aphid) in cotton leaves assessed as mortality measured after 48 hr by dipping method
[9] = system: Aphis gossypii; assay: Resistance ratio, LC50 for Aphis gossypii F27 (cotton aphid) to LC50 for Aphis gossypii F0
[10] = system: Aphis gossypii; assay: Resistance ratio, LC50 for Aphis gossypii F42 (cotton aphid) to LC50 for Aphis gossypii F0
[11] = system: Aphis gossypii; assay: Insecticidal activity against cotton aphid Aphis gossypii F45 (cotton aphid) in cotton leaves assessed as mortality measured after 48 hr by dipping method
[12] = system: Aphis gossypii; assay: Resistance ratio, LC50 for Aphis gossypii F15 (cotton aphid) to LC50 for Aphis gossypii F0
[13] = system: Aphis gossypii; assay: Insecticidal activity against cotton aphid Aphis gossypii F24 (cotton aphid) in cotton leaves assessed as mortality measured after 48 hr by dipping method
[14] = system: Aphis gossypii; assay: Resistance ratio, LC50 for Aphis gossypii F36 (cotton aphid) to LC50 for Aphis gossypii F0
[15] = system: Aphis gossypii; assay: Insecticidal activity against cotton aphid Aphis gossypii F36 (cotton aphid) in cotton leaves assessed as mortality measured after 48 hr by dipping method
[16] = system: Aphis gossypii; assay: Resistance ratio, LC50 for Aphis gossypii F30 (cotton aphid) to LC50 for Aphis gossypii F0
[17] = system: Aphis gossypii; assay: Resistance ratio, LC50 for Aphis gossypii F33 (cotton aphid) to LC50 for Aphis gossypii F0
[18] = system: Aphis gossypii; assay: Insecticidal activity against cotton aphid Aphis gossypii F12 (cotton aphid) in cotton leaves assessed as mortality measured after 48 hr by dipping method
[19] = system: Aphis gossypii; assay: Insecticidal activity against cotton aphid Aphis gossypii F3 (cotton aphid) in cotton leaves assessed as mortality measured after 48 hr by dipping method
[20] = system: Aphis gossypii; assay: Resistance ratio, LC50 for Aphis gossypii F6 (cotton aphid) to LC50 for Aphis gossypii F0
[21] = system: Aphis gossypii; assay: Insecticidal activity against cotton aphid Aphis gossypii F42 (cotton aphid) in cotton leaves assessed as mortality measured after 48 hr by dipping method
[22] = system: Aphis gossypii; assay: Resistance ratio, LC50 for Aphis gossypii F24 (cotton aphid) to LC50 for Aphis gossypii F0
[23] = system: Aphis gossypii; assay: Resistance ratio, LC50 for Aphis gossypii F18 (cotton aphid) to LC50 for Aphis gossypii F0
[24] = system: Aphis gossypii; assay: Insecticidal activity against cotton aphid Aphis gossypii F15 (cotton aphid) in cotton leaves assessed as mortality measured after 48 hr by dipping method
[25] = system: Aphis gossypii; assay: Resistance ratio, LC50 for Aphis gossypii F3 (cotton aphid) to LC50 for Aphis gossypii F0
[26] = system: Aphis gossypii; assay: Insecticidal activity against cotton aphid Aphis gossypii F27 (cotton aphid) in cotton leaves assessed as mortality measured after 48 hr by dipping method
[27] = system: Aphis gossypii; assay: Insecticidal activity against cotton aphid Aphis gossypii F18 (cotton aphid) in cotton leaves assessed as mortality measured after 48 hr by dipping method
[28] = system: Aphis gossypii; assay: Resistance ratio, LC50 for Aphis gossypii F39 (cotton aphid) to LC50 for Aphis gossypii F0
[29] = system: Aphis gossypii; assay: Resistance ratio, LC50 for Aphis gossypii F9 (cotton aphid) to LC50 for Aphis gossypii F0
[30] = system: Aphis gossypii; assay: Resistance ratio, LC50 for Aphis gossypii F12 (cotton aphid) to LC50 for Aphis gossypii F0
[31] = system: Aphis gossypii; assay: Resistance ratio, LC50 for Aphis gossypii F21 (cotton aphid) to LC50 for Aphis gossypii F0
[32] = system: Aphis gossypii; assay: Insecticidal activity against cotton aphid Aphis gossypii F30 (cotton aphid) in cotton leaves assessed as mortality measured after 48 hr by dipping method
[33] = system: Aphis gossypii; assay: Resistance ratio, LC50 for Aphis gossypii F45 (cotton aphid) to LC50 for Aphis gossypii F0
[34] = system: Aphis gossypii; assay: Insecticidal activity against cotton aphid Aphis gossypii F39 (cotton aphid) in cotton leaves assessed as mortality measured after 48 hr by dipping method
[35] = system: Aphis gossypii; assay: Insecticidal activity against cotton aphid Aphis gossypii F21 (cotton aphid) in cotton leaves assessed as mortality measured after 48 hr by dipping method
[36] = system: Aphis gossypii; assay: Insecticidal activity against cotton aphid Aphis gossypii F33 (cotton aphid) in cotton leaves assessed as mortality measured after 48 hr by dipping method
[37] = system: Aphis gossypii; assay: Insecticidal activity against cotton aphid Aphis gossypii F0 (cotton aphid) in cotton leaves assessed as mortality measured after 48 hr by dipping method

## C/C(=N\C#N)N(C)Cc1ccc(Cl)nc1 [ACETAMIPRID]
[1]
  inhibition (INH): 40.2%
[2]
  Survival: 11.4 days
[3]
  RatioLC50: 4.52
[4]
  LC20: 8.36 µg/mL (≈ 37.5 µM)
[5]
  LC50: 12.4 microg/mL2
[6]
  LC50: 2.73 microg/mL2

## CN1COCN(Cc2cnc(Cl)s2)/C1=N\[N+](=O)[O-] [THIAMETHOXAM]
[1]
  inhibition (INH): 73.7%
[2]
  Survival: 6.78 days
[3]
  RatioLC50: 1.06
[4]
  LC20: 0.96 µg/mL (≈ 3.29 µM)
[5]
  LC50: 1.69 microg/mL2
[6]
  LC50: 1.6 microg/mL2

## O=[N+]([O-])/N=C1\NCCN1Cc1ccc(Cl)nc1 [IMIDACLOPRID]
[1]
  inhibition (INH): 23.4%
[7]
  LC50: 1.23 microg/mL2
[8]
  LC50: 1.54 microg/mL2
[9]
  RatioLC50: 22.2
[2]
  Survival: 13.6 days
[10]
  RatioLC50: 41.1
[3]
  RatioLC50: 41.7
[11]
  LC50: 13.5 microg/mL2
[12]
  RatioLC50: 10.4
[13]
  LC50: 6.35 microg/mL2
[14]
  RatioLC50: 38.2
[15]
  LC50: 12.2 microg/mL2
[16]
  RatioLC50: 28.5
[17]
  RatioLC50: 33.4
[18]
  LC50: 2.41 microg/mL2
[19]
  LC50: 0.55 microg/mL2
[20]
  RatioLC50: 3.84
[21]
  LC50: 13.2 microg/mL2
[22]
  RatioLC50: 19.8
[23]
  RatioLC50: 13.1
[24]
  LC50: 3.34 microg/mL2
[25]
  RatioLC50: 1.72
[4]
  LC20: 10.6 µg/mL (≈ 41.5 µM)
[26]
  LC50: 7.1 microg/mL2
[27]
  LC50: 4.2 microg/mL2
[28]
  RatioLC50: 39.3
[29]
  RatioLC50: 4.81
[30]
  RatioLC50: 7.53
[31]
  RatioLC50: 16.2
[32]
  LC50: 9.12 microg/mL2
[33]
  RatioLC50: 41.7
[34]
  LC50: 12.6 microg/mL2
[35]
  LC50: 5.17 microg/mL2
[36]
  LC50: 10.7 microg/mL2
[5]
  LC50: 13.5 microg/mL2
[37]
  LC50: 0.32 microg/mL2
[6]
  LC50: 0.32 microg/mL2

## N#C/N=C1\SCCN1Cc1ccc(Cl)nc1 [THIACLOPRID]
[1]
  inhibition (INH): 36.9%
[2]
  Survival: 10.6 days
[3]
  RatioLC50: 3.68
[4]
  LC20: 5.45 µg/mL (≈ 21.6 µM)
[5]
  LC50: 8.69 microg/mL2
[6]
  LC50: 2.36 microg/mL2

## CN/C(=N\[N+](=O)[O-])NCc1cnc(Cl)s1 [CLOTHIANIDINE]
[1]
  inhibition (INH): 72.7%
[2]
  Survival: 6.61 days
[3]
  RatioLC50: 1.2
[4]
  LC20: 1.23 µg/mL (≈ 4.93 µM)
[5]
  LC50: 2.18 microg/mL2
[6]
  LC50: 1.82 microg/mL2

## CCN(Cc1ccc(Cl)nc1)/C(=C/[N+](=O)[O-])NC [NITENPYRAM]
[1]
  inhibition (INH): 28.3%
[2]
  Survival: 8.42 days
[3]
  RatioLC50: 5.78
[4]
  LC20: 10.5 µg/mL (≈ 38.8 µM)
[5]
  LC50: 14.3 microg/mL2
[6]
  LC50: 2.47 microg/mL2

## CN/C(=N/CC1CCOC1)N[N+](=O)[O-] (stereo not drawn) [DINOTEFURAN]
[1]
  inhibition (INH): 82.2%
[2]
  Survival: 2.95 days
[3]
  RatioLC50: 1.07
[4]
  LC20: 0.88 µg/mL (≈ 4.35 µM)
[5]
  LC50: 1.29 microg/mL2
[6]
  LC50: 1.2 microg/mL2
